Assays:
GSK-3β = experiment: Western blot of GSK-3β (total and phosphorylated) in B16-F10 melanoma cell extracts; type: cell-based
Method: (§1) Cells (B16-F10 melanoma cells) were maintained in RPMI medium supplemented with 10% […], 200 mM glutamine, 100 U/ml penicillin and 100 μg/ml streptomycin. They were transferred to a freshly prepared medium twice weekly. For all studies we used serum starved cells. FBS was omitted from the cultures for 18 hours and the experiment was carried out on monolayers of cells in RPMI medium supplemented with 1% FBS in a 37° C., 5% CO2 incubator.
(§2) To detect the level of expression of PKA, GSK-3β (total and phosphorylated), PKB/Akt (total and phosphorylated), β-catenin, c-myc and cyclin D1, protein extract from IB-MECA treated or untreated serum-starved B16-F10 melanoma cells were utilized. […] Further, to mimic the chain of events occurring upon activation of A2R, cells were incubated with 8Br cAMP.
(§3) At the end of the incubation period, cells were rinsed with ice-cold PBS and lysed in ice-cold lysis buffer (TNN buffer, 50 mM tis buffer pH=7.5, 150 mM NaCl, NP 40). Cell debris was removed by centrifugation at 7500×g for 10 min. Supernatant was utilized for Western Blot analysis. Protein concentrations were determined using the Bio-Rad protein assay dye reagent. […] Bands were recorded using BCIP/NBT color development kit (Promega, Madison, Wis., USA). […]

HIV-1 SF126 = experiment: p24 ELISA, HIV replication in SF infected microglia; type: cell-based
Method: Purified primary human fetal astrocytes and microgial cells were prepared from 16 to 20 week old human fetal brain tissue by a modified procedure based on the methods of Cole and de Vellis [R. Cole and J. de Vellis. In: Protocols for neural cell cure. S. Fedoroff and A. Richardson (Eds.) Human Press, Totowa, N.J., pp. is 117-130. (1997)], and Yong and Antel [V. W. Yong and J. P. Antel. In: Protocols for neural cell culture. S. Fedoroff and A. Richardson (Eds.) Humana Press, Totowa, N.J., pp. 157-172 (1997)]. Brain tissue was washed in ice-cold Hank's Balanced Salt Solution (HBSS) containing the antibiotics gentamycin and arnphotericin B. Blood vessels and meninges were removed and the tissue was minced into small pieces. After mincing, the tissue was enzymatically dissociated by incubation in 0.05% trypsin and mechanically disrupted by passing several times over a 75 μm nylon mesh filter. The resulting single cell suspension was washed, pelleted and plated at a density of 2-10×10^6 cells per 162 cm^2 flask in DMEM:F12 containing 10% fetal calf […], gentamycin, and L-glutamine. After 7-10 days of growth, microglial cells were isolated by placement on rotary shaker at 200 rpm in a 37° C. incubator overnight. The non-adherent cells were removed and allowed to attach to a new flask for 1 to 3 h. Following attachment, the cells were washed and refed with media containing 10% fetal calf serum, insulin, gentamycin, L-gluntamine, and N1 supplement. Astocyes were subeultured from adherent cells in media containing 15% fetal calf serum, insulin, gentamycin, and L-glutamine and contaminating microglia were removed by repeated rotary shaking. Cultured astrocytic and nicroglial cells were plated at a density of 2.5×10^5 per well into 6 well plates for subseqent infection.
Brain derived primary HIV-1 isolates SF162 and JR-FL were cultured in human peripheral blood mononuclear cells (PBMC) essentially as described by Gartner and Popovic^12. PBMC were isolated from human buffy coat by ficoll gradient and plated at a density of 2.5×10^6 per ml in RPMI containing 10% fetal calf serum and gentamycin. Cells were stimulated by the addition of 5 μg/ml of phytohemagglutinin (PHA) for 48 h. After stimulation, cells were infected with either SF162 or JR-FL and cultured for 7 to 10 days until high titres of MIV-1 were detected in the supernatant by p24 ELISA assay. When viral production was optimal, the cells were pelleted, the supernatant containing HIV-1 was aliquoted and stored at −70° C. until use. P24 ELISA assay was performed on an aliquot of stock to determine the viral titre.
Microglial or astrocytic cells (2.5×10^5) were plated per well into 6-well plates. The next day, cells were washed and refed with fresh medium. […]

HIV-1 SF162 = experiment: p24 ELISA, HIV replication in SF162 infected astroglia; type: cell-based; conditions: Astroglia/SF-162, 0.01 (μM); HIV control 313.38
Method: (§4) Purified primary human fetal astrocytes and microgial cells were prepared from 16 to 20 week old human fetal brain tissue by a modified procedure based on the methods of Cole and de Vellis [R. Cole and J. de Vellis. In: Protocols for neural cell cure. S. Fedoroff and A. Richardson (Eds.) Human Press, Totowa, N.J., pp. is 117-130. (1997)], and Yong and Antel [V. W. Yong and J. P. Antel. In: Protocols for neural cell culture. S. Fedoroff and A. Richardson (Eds.) Humana Press, Totowa, N.J., pp. 157-172 (1997)]. Brain tissue was washed in ice-cold Hank's Balanced Salt Solution (HBSS) containing the antibiotics gentamycin and arnphotericin B. Blood vessels and meninges were removed and the tissue was minced into small pieces. After mincing, the tissue was enzymatically dissociated by incubation in 0.05% trypsin and mechanically disrupted by passing several times over a 75 μm nylon mesh filter. […]
(§5) Brain derived primary HIV-1 isolates SF162 and JR-FL were cultured in human peripheral blood mononuclear cells (PBMC) essentially as described by Gartner and Popovic^12. […] After stimulation, cells were infected with either SF162 or JR-FL and cultured for 7 to 10 days until high titres of MIV-1 were detected in the supernatant by p24 ELISA assay. […]

c-myc = experiment: Western blot of tumor tissue from HCT-116 colon carcinoma bearing mice: c-myc; type: in vivo, Balb/C nude mice; conditions: 6 μg/Kg orally every second day, 30 days
β-catenin = experiment: Western blot of tumor tissue from HCT-116 colon carcinoma bearing mice: β-catenin; type: in vivo, Balb/C nude mice; conditions: 6 μg/Kg orally every second day, 30 days
Method: (§6) A similar series of studies was utilized in a colon carcinoma murine animal model to determine whether elements of the Wnt pathway altered by IB-MECA in vitro, occur as well in viro with Cl-B-MECA (another A3RAg). The animal model was generated by subcutaneous injection of 1.2×10^6HCT-116 human colon carcinoma cells to the flank of Balb/C nude mice. The mice were treated orally (by gavage), every second day with 6 μg/Kg Cl-IB-MECA.
(§7) After 30 days the mice were sacrificed and tissue samples from the colon carcinoma foci were harvested and analyzed for the expression of β-catenin and cyclin D1.

cyclin D1 = experiment: Western blot of tumor tissue from HCT-116 colon carcinoma bearing mice: cyclin D1; type: in vivo, Balb/C nude mice; conditions: 6 μg/Kg orally every second day, 30 days
Method: as §6, §7

HIV-1 JR-FL = experiment: p24 ELISA, HIV replication in JR-FL infected astroglial cells; type: cell-based; conditions: Astroglia/JR-FL, 0.01 (μM, every 24 hours); HIV control 22.83
Method: as §4, §5

hair growth = experiment: Hair growth in nude mice inoculated with HCT-116 colon carcinoma cells; type: in vivo, Nude mice (BalbC origin); conditions: 6 μg/kg body weight orally daily, 30 days
Method: Nude mice (BalbC origin) were subcutaneously inoculated with HCT16 human colon carcinoma cells, which thus developed a visible tumor.
Cl-IB-MECA was dissolved in DMSO and kept as a stock solution. in a concentration of 10 mM. Before administration to the mice, the stock solution was diluted with PBS to a concentration so that each mice received a dosage of 6 μg/kg body weight.
Nude mice (BalbC origin) were subcutaneously inoculated wit HCT-16 human colon carcinoma cells. These mice were divided into two groups:
Study group which was daily and orally administered with Cl-IB-MECA (6 μg/kg body weight) dissolved in DMSO and diluted with PBS.
Control group which was daily and orally administered with DMSO only.

PKAc = experiment: Western blot of PKAc in B16-F10 melanoma cell extracts; type: cell-based; conditions: antagonist 0.01 μM with IB-MECA
Method: as §1, §2, §3

B16-F10 melanoma cells = experiment: [3H]-thymidine incorporation cell proliferation assay; type: cell-based; conditions: antagonist 0.01 μM added in the presence of IB-MECA
Method: as §1
[^3H]-thymidine incorporation assay as used to evaluate cell growth. B136-F10 melanom Cella (1.5×10^4/ml) were incubated with IB-MECA (0.0 μM-10 μM) in 96-well microtiter plates for 24 hours. To test whether IB-MECA exerted its effect on tumor cells through binding to A3AR, an antagonist to A3AR, MRS-1523, was added to the cell cultures in the presence of IB-MECA. Cultures of B16-F10 melanoma cells tat were incubated in the presence of MRS-1523 only, served as controls. For the last 6 h of incubation, each well was pulsed with 1 μCi [3H]-thymidine. Cells were harvested and the [^3H]-thyine uptake was determined in an LKB liquid scintillation counter (LKB, Piscataway, N.J., USA). These experiments were repeated at least 10 times.

## Nc1ncnc2c1nc(Br)n2[C@@H]1O[C@@H]2COP(=O)(O)O[C@H]2[C@H]1O [8Br cAMP]
GSK-3β; 8Br cAMP added to culture to mimic A2AR activation
  level of GSK-3β: decrease

## CNC(=O)C1OC(n2cnc3c(NCc4cccc(I)c4)nc(Cl)nc32)C(O)C1O (centres unmarked) [Cl-IB-MECA]
HIV-1 SF126; 0.01, HIV control 209.18
  p 24 Day 10 after infection: 111.05 pg/mL
HIV-1 SF126; 0.01, HIV control 267.99
  p 24 Day 5 after infection: 127.03 pg/mL
HIV-1 SF126; 0.1, HIV control 209.18
  p 24 Day 10 after infection: 80.37 pg/mL
HIV-1 SF126; 0.1, HIV control 267.99
  p 24 Day 5 after infection: 10.81 pg/mL
HIV-1 SF162
  p 24 Day 5: 288.77 pg/mL
c-myc
  level of c-myc in tumor tissue: decrease
β-catenin
  level of β-catenin in tumor tissue: decrease
Cyclin D1
  level of cyclin D1 in tumor tissue: decrease
HIV-1 JR-FL
  p 24 Day 5: 8.45 pg/mL
Hair growth
  hair growth on the skin: hair grew

## CCCOC(=O)c1c(-c2ccccc2)nc(CC)c(C(=O)SCC)c1CCC [MRS-1523]
PKAc
  effect on the IB-MECA induced decrease in PKAc: reversed
B16-F10 melanoma cells
  effect on the inhibitory effect of IB-MECA on melanoma cell growth: reversed the inhibitory effect of IB-MECA
GSK-3β; antagonist 0.01 μM with IB-MECA
  effect on the IB-MECA induced increase in GSK-3β levels: reversed

— US20020165197A1, “Modulation of GSK-3beta activity and its different uses” (priority 2001, published 2002)
